Results as given in the NIST ThermoML archive (doi:10.1021/je060271a).

Details: 323.15 K, Liquid, Vibrating tube method

CCCCC(=O)OCC(COC(=O)CCCC)(COC(=O)CCCC)COC(=O)CCCC [pentaerythritol tetrapentanoate]
Details | mass density [kg/m3]
25366 kPa | 1011.6
25395 kPa | 1011.5
25431 kPa | 1011.6
25460 kPa | 1011.6
25495 kPa | 1011.6
25525 kPa | 1011.6
25555 kPa | 1011.6
25590 kPa | 1011.6
25620 kPa | 1011.7
25651 kPa | 1011.7
25684 kPa | 1011.7
25714 kPa | 1011.8
25750 kPa | 1011.8
25780 kPa | 1011.9
25817 kPa | 1011.9
25847 kPa | 1011.7
25878 kPa | 1011.8
25908 kPa | 1012
25945 kPa | 1011.9
25976 kPa | 1011.9
26007 kPa | 1011.9
26044 kPa | 1011.9
26076 kPa | 1011.8
26107 kPa | 1012
26145 kPa | 1012
26176 kPa | 1012
26208 kPa | 1012.1
26245 kPa | 1012.1
26277 kPa | 1012
26308 kPa | 1012.1
26346 kPa | 1012
26378 kPa | 1012.2
26410 kPa | 1012.2
26448 kPa | 1012.2
26480 kPa | 1012.3
26512 kPa | 1012.2
26551 kPa | 1012.2
26584 kPa | 1012.3
26617 kPa | 1012.3
26656 kPa | 1012.3
26689 kPa | 1012.2
26722 kPa | 1012.4
26754 kPa | 1012.4
26794 kPa | 1012.3
26826 kPa | 1012.3
26860 kPa | 1012.3
26900 kPa | 1012.5
26933 kPa | 1012.5
26967 kPa | 1012.4
27007 kPa | 1012.6
27041 kPa | 1012.5
27075 kPa | 1012.5
27109 kPa | 1012.6
27150 kPa | 1012.7
27183 kPa | 1012.7
27218 kPa | 1012.7
27258 kPa | 1012.7
27292 kPa | 1012.6
27327 kPa | 1012.6
27362 kPa | 1012.7
27404 kPa | 1012.7
27440 kPa | 1012.7
27475 kPa | 1012.8
27510 kPa | 1012.9
27552 kPa | 1012.9
27586 kPa | 1012.9
27628 kPa | 1012.9
27663 kPa | 1012.9
27698 kPa | 1012.9
27733 kPa | 1012.9
27776 kPa | 1013.1
27811 kPa | 1013.1
27847 kPa | 1013
27890 kPa | 1013.1
27926 kPa | 1013.1
27968 kPa | 1013.1
28005 kPa | 1013.1
28041 kPa | 1013.1
28077 kPa | 1013.2
28122 kPa | 1013.2
28158 kPa | 1013.1
28195 kPa | 1013.3
28238 kPa | 1013.2
28276 kPa | 1013.3
28313 kPa | 1013.4
28357 kPa | 1013.2
28396 kPa | 1013.3
28435 kPa | 1013.4
28472 kPa | 1013.4
28511 kPa | 1013.4
28557 kPa | 1013.5
28595 kPa | 1013.5
28633 kPa | 1013.5
28672 kPa | 1013.6
28719 kPa | 1013.5
28798 kPa | 1013.6
28964 kPa | 1013.6
28998 kPa | 1013.7
29025 kPa | 1013.8
29053 kPa | 1013.7
29087 kPa | 1013.7
29115 kPa | 1013.8
29143 kPa | 1013.8
29325 kPa | 1013.9
29354 kPa | 1014
29388 kPa | 1013.9
29418 kPa | 1014
29452 kPa | 1014
29480 kPa | 1013.9
29509 kPa | 1014.1
29544 kPa | 1014
29573 kPa | 1014
29602 kPa | 1014.1
29638 kPa | 1014.2
29667 kPa | 1014.1
29697 kPa | 1014.1
29733 kPa | 1014.2
29762 kPa | 1014.2
29792 kPa | 1014.2
29822 kPa | 1014.1
29857 kPa | 1014.2
29886 kPa | 1014.2
29917 kPa | 1014.3
29952 kPa | 1014.3
29982 kPa | 1014.4
30012 kPa | 1014.3
30049 kPa | 1014.4
30078 kPa | 1014.4
30109 kPa | 1014.5
30146 kPa | 1014.5
30177 kPa | 1014.4
30208 kPa | 1014.5
30238 kPa | 1014.4
30275 kPa | 1014.4
30306 kPa | 1014.5
30342 kPa | 1014.6
30373 kPa | 1014.5
30404 kPa | 1014.6
30435 kPa | 1014.6
30472 kPa | 1014.7
30504 kPa | 1014.6
30535 kPa | 1014.7
30573 kPa | 1014.7
30604 kPa | 1014.7
30641 kPa | 1014.6
30673 kPa | 1014.7
30705 kPa | 1014.8
30742 kPa | 1014.7
30774 kPa | 1014.9
30806 kPa | 1014.9
30838 kPa | 1014.8
30876 kPa | 1014.9
30908 kPa | 1014.9
30947 kPa | 1014.9
30979 kPa | 1014.9
31012 kPa | 1014.9
31051 kPa | 1014.9
31084 kPa | 1015
31116 kPa | 1015.1
31149 kPa | 1015
